This assay concerns the target T1, human PKCθ full length enzyme (Homo sapiens, UniProt Q04759).
T1 construct: human PKCθ full length enzyme (Panvera Cat# P2996); purchased Panvera P2996
Nature of the assay: PKCθ IMAP assay (fluorescence polarization). In kind it is biochemical. Conditions: human PKCθ full length enzyme, IMAP; average value; read-out: IC50 PKCθ IMAP. How it is done:
The reaction buffer was prepared by diluting the 5× stock reaction buffer and adding DTT to obtain a concentration of 3.0 mM. […] The final concentration of compound was 2× and 10% DMSO. DMSO was added to the rest of the master mix to increase the concentration to 10%. 10 μl of the master mix containing 10% DMSO was added to the rest of the wells on the plate except the 2nd column. 20 μl was transferred from the first column to the 2nd column. The compounds were serially diluted in 2:1 ratio starting from the 2nd column. A 2× ([…]) PKCθ solution was made in the reaction buffer. 10 μl of the PKCθ solution was added to every well to achieve these final concentrations: PKCθ—1 nM; ATP—6 μM; peptide—100 nM; DMSO—5%. Samples were incubated for 25 minutes at room temperature. The binding reagent was prepared by diluting the beads in 1× binding buffer to 800:1. 50 μl of the binding reagent was added to every well and incubated for 20 minutes. FP was measured using Envision2100 (PerkinElmer Life Sciences). Wells with no ATPs and wells with no enzymes were used as controls.

T1 sequence (Q04759 whole entry): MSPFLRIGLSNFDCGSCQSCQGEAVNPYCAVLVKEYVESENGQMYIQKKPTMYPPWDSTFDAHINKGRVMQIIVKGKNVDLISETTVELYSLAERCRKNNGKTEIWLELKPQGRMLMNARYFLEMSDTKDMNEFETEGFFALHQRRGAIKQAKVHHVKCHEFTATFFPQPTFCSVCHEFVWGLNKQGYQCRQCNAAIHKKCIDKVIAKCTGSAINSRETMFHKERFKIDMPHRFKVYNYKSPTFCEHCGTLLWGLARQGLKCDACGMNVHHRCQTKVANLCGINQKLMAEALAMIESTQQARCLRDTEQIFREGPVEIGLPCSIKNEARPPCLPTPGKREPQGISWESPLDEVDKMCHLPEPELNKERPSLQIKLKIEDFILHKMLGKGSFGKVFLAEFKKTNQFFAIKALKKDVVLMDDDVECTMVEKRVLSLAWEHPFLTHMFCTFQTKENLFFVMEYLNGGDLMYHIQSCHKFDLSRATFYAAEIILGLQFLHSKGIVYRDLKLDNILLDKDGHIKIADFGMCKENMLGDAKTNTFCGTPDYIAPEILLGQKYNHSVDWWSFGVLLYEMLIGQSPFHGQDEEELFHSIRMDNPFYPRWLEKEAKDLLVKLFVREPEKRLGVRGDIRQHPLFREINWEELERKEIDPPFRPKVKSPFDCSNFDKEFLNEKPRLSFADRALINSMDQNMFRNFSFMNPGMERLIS

In the case of “4-(1H-indol-4-ylamino)-5-(4-methoxy-3-{2-[(3-pyrrolidin-1-ylpropyl)amino]ethoxy}phenyl)nicotinonitrile [Compound 340]”, the IC50 turned out to be 8 nM. Consider “4-(1H-indol-4-ylamino)-5-(4-{2-[(3-phenylpropyl)amino]ethoxy}phenyl)nicotinonitrile [Compound 347]”, for which the IC50 was 4 nM.

For the molecule “4-(1H-indol-4-ylamino)-5-[4-methoxy-3-(2-{[2-(1-methylpyrrolidin-2-yl)ethyl]amino}ethoxy)phenyl]nicotinonitrile [Compound 341]”, the IC50 came out at 3 nM. Under “4-[(4-methyl-1H-indol-5-yl)amino]-5-(5-{[(3-phenylpropyl)amino]methyl}-2-furyl)nicotinonitrile [Compound 409]” stands 27 nM; under “4-[(4-methyl-1H-indol-5-yl)amino]-5-[5-(pyrrolidin-1-ylmethyl)-2-furyl]nicotinonitrile [Compound 410]”, 35 nM; under “4-[(4-methyl-1H-indol-5-yl)amino]-5-[5-(thiomorpholin-4-ylmethyl)-2-furyl]nicotinonitrile [Compound 411]”, 8 nM. As for “5-(1-benzofuran-3-yl)-4-(1H-indol-4-ylamino)nicotinonitrile [Compound 352]”, the IC50 was determined as 20 nM. Under “5-(2,4-dimethoxyphenyl)-4-(1H-indol-4-ylamino)nicotinonitrile [Compound 337]” stands 100 nM; under “5-{5-[(cyclohexylamino)methyl]-1-benzofuran-2-yl}-4-[(4-methyl-1H-indol-5-yl)amino]nicotinonitrile [Compound 387]”, 1 nM; under `COc1ccc(-c2cncc(C#N)c2NC[C@H]2CCC[C@@H](CN)C2)cc1OC` (relative stereo) [Compound 443, 4-({[cis-3-(aminomethyl)cyclohexyl]methyl}amino)-5-(3,4-dimethoxyphenyl)nicotinonitrile], 1130 nM.

Take `COc1ccc(-c2cncc(C#N)c2Nc2ccc3c(c2)CCC3)cc1OC` [Compound 107, 4-(2,3-dihydro-1H-inden-5-ylamino)-5-(3,4-dimethoxyphenyl)nicotinonitrile]: the IC50 was 9320 nM.

In the case of `COc1ccc(-c2cncc(C#N)c2Nc2ccc3[nH]c(C)cc3c2)cc1OC` [Compound 110, 5-(3,4-dimethoxyphenyl)-4-[(2-methyl-1H-indol-5-yl)amino]nicotinonitrile], the IC50 is 65 nM. Regarding `COc1ccc(-c2cncc(C#N)c2Nc2ccc3c(c2)OCO3)cc1OC` [Compound 111, 4-(1,3-benzodioxol-5-ylamino)-5-(3,4-dimethoxyphenyl)nicotinonitrile], the IC50 amounted to 580 nM. Turning to `COc1ccc(-c2cncc(C#N)c2Nc2ccc3ccccc3c2)cc1OC` [Compound 112, 5-(3,4-dimethoxyphenyl)-4-(2-naphthylamino)nicotinonitrile], the IC50 worked out at 1130 nM. As to `N#Cc1cncc(-c2cccc(Br)c2)c1Nc1ccc2[nH]ccc2c1` [Compound 113, 5-(3-bromophenyl)-4-(1H-indol-5-ylamino)nicotinonitrile], the IC50 came to 50 nM.

Regarding `N#Cc1cncc(-c2cccc(Br)c2)c1Nc1cccc2[nH]ccc12` [Compound 114, 5-(3-bromophenyl)-4-(1H-indol-4-ylamino)nicotinonitrile], the IC50 is 2 nM. As for `N#Cc1cncc(-c2ccccc2Br)c1Nc1ccc2[nH]ccc2c1` [Compound 115, 5-(2-bromophenyl)-4-(1H-indol-5-ylamino)nicotinonitrile], the figure is 310 nM. Consider `N#Cc1cncc(-c2ccc(Br)cc2)c1Nc1ccc2[nH]ccc2c1` [Compound 116, 5-(4-bromophenyl)-4-(1H-indol-5-ylamino)nicotinonitrile], for which the IC50 was 70 nM. Under `N#Cc1cncc(-c2cccc(-c3ccc(N)cc3)c2)c1Nc1ccc2[nH]ccc2c1` [Compound 119, 5-(4′-aminobiphenyl-3-yl)-4-(1H-indol-5-ylamino)nicotinonitrile] stands 300 nM; under `N#Cc1cncc(-c2cccc(-c3ccc(C(=O)NC4CCCC4)cc3)c2)c1Nc1ccc2[nH]ccc2c1` [Compound 123, 3′-[5-cyano-4-(1H-indol-5-ylamino)pyridin-3-yl]-N-cyclopentylbiphenyl-4-carboxamide], 180 nM; under `N#Cc1cncc(-c2cccc(-c3cc[nH]c3)c2)c1Nc1ccc2[nH]ccc2c1` [Compound 124, 4-(1H-indol-5-ylamino)-5-[3-(1H-pyrrol-3-yl)phenyl]nicotinonitrile], 1100 nM. `Cc1ccc(-c2cccc(-c3cncc(C#N)c3Nc3ccc4[nH]ccc4c3)c2)cc1` [Compound 128, 4-(1H-indol-5-ylamino)-5-(4′-methylbiphenyl-3-yl)nicotinonitrile]: the IC50 came out at 130 nM. As for `N#Cc1cccc(-c2cccc(-c3cncc(C#N)c3Nc3ccc4[nH]ccc4c3)c2)c1` [Compound 132, 5-(3′-cyanobiphenyl-3-yl)-4-(1H-indol-5-ylamino)nicotinonitrile], the figure is 110 nM; as for `N#Cc1cncc(-c2cccc(-c3cccs3)c2)c1Nc1ccc2[nH]ccc2c1` [Compound 136, 4-(1H-indol-5-ylamino)-5-[3-(2-thienyl)phenyl]nicotinonitrile], 130 nM. In the case of `Cc1csc(-c2cccc(-c3cncc(C#N)c3Nc3ccc4[nH]ccc4c3)c2)c1` [Compound 139, 4-(1H-indol-5-ylamino)-5-[3-(4-methyl-2-thienyl)phenyl]nicotinonitrile], the IC50 came to 250 nM. As to `CC(=O)c1ccc(-c2cccc(-c3cncc(C#N)c3Nc3ccc4[nH]ccc4c3)c2)s1` [Compound 140, 5-[3-(5-acetyl-2-thienyl)phenyl]-4-(1H-indol-5-ylamino)nicotinonitrile], the IC50 is 110 nM. For `N#Cc1cncc(-c2cccc(-c3ccoc3)c2)c1Nc1ccc2[nH]ccc2c1` [Compound 142, 5-[3-(3-furyl)phenyl]-4-(1H-indol-5-ylamino)nicotinonitrile], the IC50 stood at 120 nM. For `N#Cc1cncc(-c2cccc(-c3cccs3)c2)c1Nc1cccc2[nH]ccc12` [Compound 147, 4-(1H-indol-4-ylamino)-5-[3-(2-thienyl)phenyl]nicotinonitrile], the IC50 amounted to 20 nM. For `N#Cc1cncc(-c2cccc(-c3ccc(C(=O)NC4CCCC4)cc3)c2)c1Nc1cccc2[nH]ccc12` [Compound 148, 3′-[5-cyano-4-(1H-indol-4-ylamino)pyridin-3-yl]-N-cyclopentylbiphenyl-4-carboxamide], the IC50 turned out to be 40 nM. Take `N#Cc1cncc(-c2cccc(-c3ccc(C(=O)N4CCCC4)cc3)c2)c1Nc1cccc2[nH]ccc12` [Compound 149, 4-(1H-indol-4-ylamino)-5-[4′-(pyrrolidin-1-ylcarbonyl)biphenyl-3-yl]nicotinonitrile]: the IC50 amounted to 70 nM. Regarding `N#Cc1cncc(-c2cccc(-c3ccc(C=O)s3)c2)c1Nc1ccc2[nH]ccc2c1` [Compound 150, 5-[3-(5-formyl-2-thienyl)phenyl]-4-(1H-indol-5-ylamino)nicotinonitrile], the IC50 worked out at 120 nM. As to `COCCOc1cccc(-c2cncc(C#N)c2Nc2cccc3[nH]ccc23)c1` [Compound 164, 4-(1H-indol-4-ylamino)-5-[3-(2-methoxyethoxy)phenyl]nicotinonitrile], the IC50 turned out to be 30 nM.

As for `CN1CCN(CCOc2cccc(-c3cncc(C#N)c3Nc3cccc4[nH]ccc34)c2)CC1` [Compound 168, 4-(1H-indol-4-ylamino)-5-{3-[2-(4-methylpiperazin-1-yl)ethoxy]phenyl}nicotinonitrile], the IC50 was 20 nM. With `N#Cc1cncc(-c2cccc(OCCN3CCCCC3)c2)c1Nc1cccc2[nH]ccc12` [Compound 171, 4-(1H-indol-4-ylamino)-5-[3-(2-piperidin-1-ylethoxy)phenyl]nicotinonitrile], the IC50 came out at 50 nM. As for `N#Cc1cncc(-c2cccc(OCCNCCO)c2)c1Nc1ccc2[nH]ccc2c1` [Compound 176, 5-(3-{2-[(2-hydroxyethyl)amino]ethoxy}phenyl)-4-(1H-indol-5-ylamino)nicotinonitrile], the IC50 came to 30 nM.

`N#Cc1cncc(-c2cccc(OCCNCCN3CCCC3)c2)c1Nc1ccc2[nH]ccc2c1` [Compound 177, 4-(1H-indol-5-ylamino)-5-(3-{2-[(2-pyrrolidin-1-ylethyl)amino]ethoxy}phenyl)nicotinonitrile]: the IC50 amounted to 20 nM.

`COc1ccc(-c2cncc(C#N)c2Nc2ccc3[nH]ccc3c2)cc1OCCCl` [Compound 178, 5-[3-(2-chloroethoxy)-4-methoxyphenyl]-4-(1H-indol-5-ylamino)nicotinonitrile]: the IC50 stood at 110 nM. For the molecule `CCN(CC)CCOc1cc(-c2cncc(C#N)c2Nc2ccc3[nH]ccc3c2)ccc1OC` [Compound 179, 5-{3-[2-(diethylamino)ethoxy]-4-methoxyphenyl}-4-(1H-indol-5-ylamino)nicotinonitrile], the IC50 was 410 nM. With `COc1ccc(-c2cncc(C#N)c2Nc2ccc3[nH]ccc3c2)cc1OCCN(C(C)C)C(C)C` [Compound 180, 5-{3-[2-(diisopropylamino)ethoxy]-4-methoxyphenyl}-4-(1H-indol-5-ylamino)nicotinonitrile], the IC50 turned out to be 690 nM. For the molecule `COc1ccc(-c2cncc(C#N)c2Nc2ccc3[nH]ccc3c2)cc1OCCNCc1ccccc1` [Compound 181, 5-{3-[2-(benzylamino)ethoxy]-4-methoxyphenyl}-4-(1H-indol-5-ylamino)nicotinonitrile], the IC50 came out at 39 nM.

What is called IC50 is the midpoint of a concentration-inhibition curve.

For the origin of these results see patent publication US7781591B2, “Substituted 3-cyanopyridines as protein kinase inhibitors” (Wyeth LLC, priority 2006, dated 2010).
